Data as given in patent US9186318B2, “Quinolyl-containing hydroxamic acid compound and preparation method thereof, and pharmaceutical composition containing this compound and use thereof” (Beijing Konruns Pharmaceutical Co., Ltd, priority 2011, dated 2015).

How the values were obtained:
Test in all cases: KinomeScan 96-kinase panel
Assay type in all cases: binding
Details in all cases: compound concentration 1000 nM
KIT (V559D, T670I) = KIT (V559D, T670I) (Homo sapiens (Human), UniProt P10721, T670I/V559D)
Source text: (§1) The details of the screening technology were described in Fabian, M. A. et al, Nat., Biotechnol. 2005, 23, 329 and Karaman, M. W. et al, Nat., Biotechnol. 2008, 26, 127. From the above representative results, it can be seen that the compounds of the present invention have potent inhibitory activities on kinases including ALK, AXL, VEGFR2, PDGFR-α, PDGFR-β, c-KIT, Flt3, MEK1, MEK2, CSF1R, EPHA2, EPHA2, MKNK2, SRC, TIE2 and their mutants. Accordingly, the compounds of the present invention can be used for the treatment of diseases caused by abnormal activities of these kinases, e.g., cancer, psoriasis, hepatic cirrhosis, diabetes, diseases involving angiogenesis, eye diseases, immune system diseases, cardiovascular diseases, and so forth.

IKK-beta = IKK-beta (Homo sapiens (Human), UniProt O14920)
Source text: as §1

CSNK1G2 = CSNK1G2 (Homo sapiens (Human), UniProt P78368)
Source text: as §1

FAK = FAK (Homo sapiens (Human), UniProt Q05397)
Source text: as §1

DYRK1B = DYRK1B (Homo sapiens (Human), UniProt Q9Y463)
Source text: as §1

EPHA2 = EPHA2 (Homo sapiens (Human), UniProt P29317)
EPHA2, sequence (P29317 24-976): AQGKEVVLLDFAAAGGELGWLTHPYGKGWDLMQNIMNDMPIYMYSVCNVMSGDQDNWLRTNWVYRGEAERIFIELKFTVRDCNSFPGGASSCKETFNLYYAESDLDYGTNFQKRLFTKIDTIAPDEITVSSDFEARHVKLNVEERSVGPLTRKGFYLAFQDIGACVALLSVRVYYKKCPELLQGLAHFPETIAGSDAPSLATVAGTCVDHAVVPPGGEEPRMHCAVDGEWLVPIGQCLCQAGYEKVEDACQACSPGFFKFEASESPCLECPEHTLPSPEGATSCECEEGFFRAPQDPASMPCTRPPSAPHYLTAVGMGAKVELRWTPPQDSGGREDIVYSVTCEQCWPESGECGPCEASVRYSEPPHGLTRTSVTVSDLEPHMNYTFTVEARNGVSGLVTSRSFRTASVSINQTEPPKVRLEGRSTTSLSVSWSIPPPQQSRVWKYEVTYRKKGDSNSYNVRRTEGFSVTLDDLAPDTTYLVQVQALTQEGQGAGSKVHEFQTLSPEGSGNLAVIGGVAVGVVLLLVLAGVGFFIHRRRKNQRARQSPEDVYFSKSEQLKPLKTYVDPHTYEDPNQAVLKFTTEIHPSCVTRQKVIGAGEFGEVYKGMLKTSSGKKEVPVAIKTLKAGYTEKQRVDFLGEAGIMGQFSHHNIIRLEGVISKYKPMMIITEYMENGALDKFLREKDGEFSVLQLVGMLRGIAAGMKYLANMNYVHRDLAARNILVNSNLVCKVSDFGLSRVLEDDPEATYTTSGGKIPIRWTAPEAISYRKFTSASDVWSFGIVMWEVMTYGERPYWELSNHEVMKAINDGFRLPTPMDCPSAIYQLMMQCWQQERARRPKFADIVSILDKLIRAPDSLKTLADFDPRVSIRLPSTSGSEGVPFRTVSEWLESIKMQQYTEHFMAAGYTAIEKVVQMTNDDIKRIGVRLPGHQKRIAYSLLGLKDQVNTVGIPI
Source text: as §1

CDK2 = CDK2 (Homo sapiens (Human), UniProt P24941)
Source text: as §1

PIK3CA = PIK3CA (Homo sapiens (Human), UniProt P42336)
Source text: as §1

BRAF = BRAF (Homo sapiens (Human), UniProt P15056)
BRAF, sequence (P15056 whole entry): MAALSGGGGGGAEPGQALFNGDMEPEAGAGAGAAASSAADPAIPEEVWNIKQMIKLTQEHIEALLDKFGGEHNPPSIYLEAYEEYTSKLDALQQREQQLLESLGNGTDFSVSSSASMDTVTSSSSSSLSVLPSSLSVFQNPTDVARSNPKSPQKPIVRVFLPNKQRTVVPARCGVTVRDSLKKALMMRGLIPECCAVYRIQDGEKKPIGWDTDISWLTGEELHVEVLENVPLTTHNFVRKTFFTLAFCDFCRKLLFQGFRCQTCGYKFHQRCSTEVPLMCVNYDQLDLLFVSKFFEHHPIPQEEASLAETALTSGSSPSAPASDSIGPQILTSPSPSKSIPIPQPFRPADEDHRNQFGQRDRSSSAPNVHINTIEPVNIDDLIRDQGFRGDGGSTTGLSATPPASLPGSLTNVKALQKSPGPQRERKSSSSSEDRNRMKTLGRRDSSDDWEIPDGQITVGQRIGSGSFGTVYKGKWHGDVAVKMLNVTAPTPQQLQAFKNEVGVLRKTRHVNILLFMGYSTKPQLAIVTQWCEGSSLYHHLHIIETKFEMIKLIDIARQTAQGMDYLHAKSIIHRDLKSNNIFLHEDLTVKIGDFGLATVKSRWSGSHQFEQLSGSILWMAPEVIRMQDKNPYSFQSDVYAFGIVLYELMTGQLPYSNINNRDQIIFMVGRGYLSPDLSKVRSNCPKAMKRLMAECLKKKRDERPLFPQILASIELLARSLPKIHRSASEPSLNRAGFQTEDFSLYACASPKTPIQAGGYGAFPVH
Source text: as §1

RIOK2 = RIOK2 (Homo sapiens (Human), UniProt Q9BVS4)
RIOK2, sequence (Q9BVS4 whole entry): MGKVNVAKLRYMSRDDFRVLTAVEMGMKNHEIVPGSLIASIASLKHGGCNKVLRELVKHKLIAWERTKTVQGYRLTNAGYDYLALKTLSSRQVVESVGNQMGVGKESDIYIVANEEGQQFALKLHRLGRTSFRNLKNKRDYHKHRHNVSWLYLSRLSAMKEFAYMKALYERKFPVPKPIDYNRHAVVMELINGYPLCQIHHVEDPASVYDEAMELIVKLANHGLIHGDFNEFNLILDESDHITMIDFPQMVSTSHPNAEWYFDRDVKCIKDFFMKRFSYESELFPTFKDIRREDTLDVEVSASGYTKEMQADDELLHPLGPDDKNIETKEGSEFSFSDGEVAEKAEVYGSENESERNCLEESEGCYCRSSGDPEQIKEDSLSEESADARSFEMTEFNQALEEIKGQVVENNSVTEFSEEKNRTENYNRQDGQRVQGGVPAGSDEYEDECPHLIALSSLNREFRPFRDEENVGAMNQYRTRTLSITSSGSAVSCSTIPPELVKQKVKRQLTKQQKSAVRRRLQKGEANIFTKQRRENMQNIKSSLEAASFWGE
Source text: as §1

ERBB2 = ERBB2 (Homo sapiens (Human), UniProt P04626)
Source text: as §1

AKT2 = AKT2 (Homo sapiens (Human), UniProt P31751)
Source text: as §1

PDGFRA = PDGFRA (Homo sapiens (Human), UniProt P16234)
PDGFRA, sequence (P16234 24-1089): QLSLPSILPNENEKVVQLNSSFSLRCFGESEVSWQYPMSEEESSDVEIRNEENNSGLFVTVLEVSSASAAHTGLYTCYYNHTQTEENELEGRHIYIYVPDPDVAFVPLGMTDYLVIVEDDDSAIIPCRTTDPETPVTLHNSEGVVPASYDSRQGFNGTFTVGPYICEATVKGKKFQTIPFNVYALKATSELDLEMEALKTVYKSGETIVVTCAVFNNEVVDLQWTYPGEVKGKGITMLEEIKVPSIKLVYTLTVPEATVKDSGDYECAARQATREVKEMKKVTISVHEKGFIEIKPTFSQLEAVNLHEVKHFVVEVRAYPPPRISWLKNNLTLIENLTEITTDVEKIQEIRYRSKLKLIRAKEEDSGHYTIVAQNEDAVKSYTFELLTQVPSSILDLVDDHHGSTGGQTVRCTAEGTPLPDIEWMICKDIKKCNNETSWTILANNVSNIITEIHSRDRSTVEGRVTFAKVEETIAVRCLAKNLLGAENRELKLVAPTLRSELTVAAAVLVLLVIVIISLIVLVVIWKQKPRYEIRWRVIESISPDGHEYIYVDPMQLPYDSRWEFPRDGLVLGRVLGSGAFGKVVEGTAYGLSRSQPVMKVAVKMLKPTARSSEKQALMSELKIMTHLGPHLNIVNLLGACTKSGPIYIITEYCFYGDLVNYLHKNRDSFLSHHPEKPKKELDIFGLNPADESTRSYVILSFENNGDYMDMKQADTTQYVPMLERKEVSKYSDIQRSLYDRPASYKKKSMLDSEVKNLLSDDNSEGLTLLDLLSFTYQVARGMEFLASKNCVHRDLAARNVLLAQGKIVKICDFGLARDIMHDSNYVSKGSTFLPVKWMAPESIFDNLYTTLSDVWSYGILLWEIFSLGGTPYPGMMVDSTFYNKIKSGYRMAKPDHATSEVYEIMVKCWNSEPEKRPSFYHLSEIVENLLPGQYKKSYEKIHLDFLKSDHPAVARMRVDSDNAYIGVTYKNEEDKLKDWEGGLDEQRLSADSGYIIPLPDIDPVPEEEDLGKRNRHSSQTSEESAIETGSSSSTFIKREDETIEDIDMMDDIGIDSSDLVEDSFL
Source text: as §1

MAP3K4 = MAP3K4 (Homo sapiens (Human), UniProt Q9Y6R4)
Source text: as §1

MEK2 = MEK2 (Homo sapiens (Human), UniProt P36507)
MEK2, sequence (P36507 whole entry): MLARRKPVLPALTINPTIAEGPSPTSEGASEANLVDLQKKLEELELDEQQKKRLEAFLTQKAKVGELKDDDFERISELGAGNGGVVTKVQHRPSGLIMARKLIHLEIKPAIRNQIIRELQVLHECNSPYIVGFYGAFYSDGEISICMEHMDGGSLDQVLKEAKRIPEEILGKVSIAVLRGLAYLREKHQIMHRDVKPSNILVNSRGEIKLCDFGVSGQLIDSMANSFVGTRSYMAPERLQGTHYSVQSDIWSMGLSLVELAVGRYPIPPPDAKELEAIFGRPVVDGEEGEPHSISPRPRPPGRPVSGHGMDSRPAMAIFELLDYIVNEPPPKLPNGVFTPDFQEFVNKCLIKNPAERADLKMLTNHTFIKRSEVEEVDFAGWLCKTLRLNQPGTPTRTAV
Source text: as §1

EGFR(L858R) = EGFR(L858R) (Homo sapiens (Human), UniProt P00533, L858R)
Source text: as §1

FGFR2 = FGFR2 (Homo sapiens (Human), UniProt P21802)
FGFR2, sequence (P21802 22-821): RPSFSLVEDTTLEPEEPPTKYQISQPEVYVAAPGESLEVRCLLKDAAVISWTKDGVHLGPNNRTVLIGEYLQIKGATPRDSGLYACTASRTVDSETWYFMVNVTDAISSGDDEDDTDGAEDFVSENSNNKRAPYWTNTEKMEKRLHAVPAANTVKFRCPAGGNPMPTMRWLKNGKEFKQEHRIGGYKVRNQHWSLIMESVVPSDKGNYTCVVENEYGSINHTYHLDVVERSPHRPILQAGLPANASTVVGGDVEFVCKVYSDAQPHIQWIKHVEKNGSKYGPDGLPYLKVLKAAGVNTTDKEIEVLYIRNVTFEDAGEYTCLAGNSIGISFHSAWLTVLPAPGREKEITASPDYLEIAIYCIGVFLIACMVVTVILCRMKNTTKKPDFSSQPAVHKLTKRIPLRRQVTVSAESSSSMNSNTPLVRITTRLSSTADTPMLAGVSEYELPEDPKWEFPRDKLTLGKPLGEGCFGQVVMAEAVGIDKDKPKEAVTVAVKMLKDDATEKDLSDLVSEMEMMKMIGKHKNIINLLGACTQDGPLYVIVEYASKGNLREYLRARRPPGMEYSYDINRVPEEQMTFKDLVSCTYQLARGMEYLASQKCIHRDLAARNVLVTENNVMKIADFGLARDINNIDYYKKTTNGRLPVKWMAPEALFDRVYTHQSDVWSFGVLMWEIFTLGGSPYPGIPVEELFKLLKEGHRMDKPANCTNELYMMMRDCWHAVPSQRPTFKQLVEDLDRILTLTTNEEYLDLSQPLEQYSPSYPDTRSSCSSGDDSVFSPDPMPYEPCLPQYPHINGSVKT
Source text: as §1

MKNK2 = MKNK2 (Homo sapiens (Human), UniProt Q9HBH9)
Source text: as §1

BRAF(V600E) = BRAF(V600E) (Homo sapiens (Human), UniProt P15056, V600E)
BRAF(V600E), sequence (P15056 whole entry V600E): as the sequence (P15056 whole entry) above, with V600E counted along it
Source text: as §1

[1] = biological target: TYK2 (JH1domain-catalytic) (Homo sapiens (Human), UniProt P29597)
TYK2 (JH1domain-catalytic), sequence (P29597 897-1176): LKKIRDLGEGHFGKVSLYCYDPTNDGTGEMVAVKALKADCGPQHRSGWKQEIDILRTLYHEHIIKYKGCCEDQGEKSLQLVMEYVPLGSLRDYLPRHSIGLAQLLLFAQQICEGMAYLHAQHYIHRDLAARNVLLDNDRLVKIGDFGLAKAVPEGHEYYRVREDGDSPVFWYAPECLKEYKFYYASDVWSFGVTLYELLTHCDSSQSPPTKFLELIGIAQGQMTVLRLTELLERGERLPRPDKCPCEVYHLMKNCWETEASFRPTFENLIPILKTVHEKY
Source text: as §1

% Ctrl@1000 nM (KIT (V559D, T670I)): 0.15 % Ctrl | % Ctrl@1000 nM (IKK-beta): 78 % Ctrl | % Ctrl@1000 nM (CSNK1G2): 99 % Ctrl | % Ctrl@1000 nM (FAK): 12 % Ctrl | % Ctrl@1000 nM (DYRK1B): 63 % Ctrl | % Ctrl@1000 nM (EPHA2): 0.9 % Ctrl | % Ctrl@1000 nM (CDK2): 73 % Ctrl | % Ctrl@1000 nM (PIK3CA): 100 % Ctrl | % Ctrl@1000 nM (BRAF): 87 % Ctrl | % Ctrl@1000 nM (RIOK2): 100 % Ctrl | % Ctrl@1000 nM (ERBB2): 15 % Ctrl | % Ctrl@1000 nM (AKT2): 100 % Ctrl | % Ctrl@1000 nM (PDGFRA): 1.8 % Ctrl | % Ctrl@1000 nM (MAP3K4): 100 % Ctrl | % Ctrl@1000 nM (MEK2): 1.8 % Ctrl | % Ctrl@1000 nM (EGFR(L858R)): 5.7 % Ctrl | % Ctrl@1000 nM (FGFR2): 65 % Ctrl | % Ctrl@1000 nM (MKNK2): 0.1 % Ctrl | % Ctrl@1000 nM (BRAF(V600E)): 88 % Ctrl | % Ctrl@1000 nM [1]: 98 % Ctrl
Compound: COc1cc2c(Oc3ccc(NC(=O)C4(C(=O)Nc5ccc(F)cc5)CC4)cc3F)ccnc2cc1OCCCCCC(=O)NO [Example 13, N1′-[3-fluoro-4-[[7-[6-(hydroxyamino)-6-oxohexyloxy]-6-methoxy-4-quinolyl]oxy]phenyl]-N1-(4-fluorophenyl)cyclopropane-1,1-dicarboxamide]
